Structures can show the parent of a compound that is named as a salt. Where two headings read alike, the source gives them in different places.
How the values were obtained:
Format in all cases: cell-based
[1] = system: Streptococcus pneumoniae clinical isolates representing several serotypes; assay: MIC determination, Streptococcus pneumoniae panel of clinical isolates (Table 7); details: Streptococcus pneumoniae
[2] = system: MRSA, Staphylococcus aureus (NRS70); assay: MIC determination, microbroth dilution; details: Staphylococcus aureus (NRS70); read-out: MIC MRSA
[3] = system: Bacillus anthracis; assay: microbe, parasite or virus in culture; details: read-out: MIC B.a.
[4] = system: Legionella pneumophila (ATCC 33153); assay: microbe, parasite or virus in culture; details: ATCC33153, 72 h, read-out: Zone of inhibition L.p.
[5] = system: Klebsiella pneumoniae (ATCC 33495); assay: MIC determination, microbroth dilution; details: ATCC33495
[6] = system: E. coli K12 ΔtolC; assay: microbe, parasite or virus in culture; details: Escherichia coli, read-out: MIC E.c. Δtolc
[7] = system: Listeria monocytogenes; assay: MIC determination (Table 6)
[8] = system: Stenotrophomonas maltophilia (ATCC 13637); assay: MIC determination, microbroth dilution
[9] = system: Neisseria meningitides (ATCC 13077); assay: Disc diffusion assay; details: ATCC13077, 4 μg per disc, read-out: Zone of inhibition N.m.
[10] = system: Escherichia coli (ATCC 700926); assay: MIC determination, microbroth dilution; details: ATCC700926; Escherichia coli (ATCC 700926); read-out: MIC E.c.
[11] = system: Proteus vulgaris (ATCC 33420); assay: MIC determination, microbroth dilution; details: ATCC33420
[12] = system: Proteus mirabilis (ATCC 25933); assay: MIC determination, microbroth dilution; details: ATCC25933
[13] = system: Moraxella catarrhalis; assay: MIC determination (Table 6)
[14] = system: Streptococcus pneumoniae (R6); assay: MIC determination, microbroth dilution
[15] = system: Neisseria gonorrhoeae (ATCC 49226); assay: Disc diffusion assay; details: ATCC49226, 4 μg per disc, read-out: Zone of inhibition N.g.
[16] = system: Enterococcus faecalis (ATCC 33186); assay: MIC determination, microbroth dilution; details: ATCC33186; Enterococcus faecalis (ATCC 33186); read-out: MIC E.f.
[17] = system: Bacillus anthracis, Sterne 34F2; assay: microbe, parasite or virus in culture; details: STERNE34F2, read-out: MIC B.a.
[18] = system: Burkholderia cepacia (ATCC 25416); assay: MIC determination, microbroth dilution; details: Burkholderia cepacia
[19] = system: Bacillus subtilis (ATCC 23857); assay: MIC determination, microbroth dilution; details: ATCC23857; Bacillus subtilis (ATCC 23857); read-out: MIC B.s.
[20] = system: Staphylococcus aureus (ATCC 29213); assay: MIC determination, microbroth dilution
[21] = system: live vaccine strain (LVS) of Francisella tularensis; assay: microbe, parasite or virus in culture; details: Francisella tularensis, read-out: MIC F.t.
[22] = system: acinetobacter baumannii (ATCC 19606); assay: MIC determination, microbroth dilution; details: ATCC19606
[23] = system: Haemophilus influenza (ATCC 49247); assay: microbe, parasite or virus in culture; details: ATCC49247; Haemophilus influenza; 4 μg per disc; range of at least two experiments; read-out: Zone of inhibition H.i.
[24] = system: Yersinia pestis; assay: microbe, parasite or virus in culture; details: read-out: MIC Y.p.
[25] = system: Pseudomonas aeruginosa (PA01); assay: MIC determination, microbroth dilution
[26] = system: Streptococcus pyogenes (ATCC 700294); assay: MIC determination, microbroth dilution; details: ATCC700294; Streptococcus pyogenes (ATCC 700294); read-out: MIC S. py.
[27] = system: M. tuberculosis clinical isolates; assay: microbe, parasite or virus in culture; details: Mycobacterium tuberculosis
[28] = system: Neisseria gonorrhoeae (ATCC 49226); assay: Agar MIC determination (Alamar Blue); details: ATCC49226, agar MIC, read-out: MIC N.g.
[29] = Streptococcus pneumoniae (R6), read-out: MIC S. pn.
[30] = ATCC25416, read-out: MIC B.c., Burkholderia cepacia (ATCC 25416)
[31] = ATCC25416, read-out: MIC B.c., Burkholderia cepacia, Table 6

Structure (SMILES): CN[C@@H]1[C@H](O)[C@H](NC)[C@H]2O[C@]3(O)[C@H](O[C@@H]2[C@H]1O)O[C@H](C)C[C@@]3(O)CNCCc1ccccc1 [compound 6, 3′-(R)-3′-(phenethylaminomethyl)dihydrospectinomycin Trihydrochloride]
- MIC ([1]; BAA1407, S. pneumoniae BAA-1407, Macrolide Resistant, read-out: MIC BAA-1407): 12.5 µg/mL
- MIC ([1]; S. pneumoniae A66.1x, Drug Susceptible, read-out: MIC A66.1x): 3.1 µg/mL
- MIC ([1]; S. pneumoniae BHN97x, Drug Susceptible, read-out: MIC BHN97x): 3.1 µg/mL
- MIC ([1]; S. pneumoniae D39X, Drug Susceptible, read-out: MIC D39X): 3.1 µg/mL
- MIC ([1]; S. pneumoniae Daw7, PenG Resistant, read-out: MIC Daw7): 6.3 µg/mL
- MIC ([1]; S. pneumoniae Daw8, PenG Resistant, read-out: MIC Daw8): 6.3 µg/mL
- MIC ([1]; S. pneumoniae Daw9, PenG Resistant, read-out: MIC Daw9): 6.3 µg/mL
- MIC ([1]; S. pneumoniae Daw62, PenG Resistant, read-out: MIC Daw62): 6.3 µg/mL
- MIC ([1]; S. pneumoniae Daw64, PenG Resistant, read-out: MIC Daw64): 6.3 µg/mL
- MIC ([1]; S. pneumoniae OVA6, Macrolide Resistant, read-out: MIC OVA6): 3.1 µg/mL
- MIC ([1]; S. pneumoniae T4X, Drug Susceptible, read-out: MIC T4X): 3.1 µg/mL
- MIC [2]: 12.5 to 25 µg/mL
- MIC [3]: 6.3 to 12.5 µg/mL
- zone of inhibition at 4 µg/disc [4]: 36 mm
- MIC [5]: 25 to 50 µg/mL
- MIC [6]: 3.1 to 6.3 µg/mL
- MIC [7]: 3.1 µg/mL
- MIC ([8]; ATCC13637, Stenotrophomonas maltophilia (ATCC 13637), read-out: MIC S.m.): 1.6 µg/mL
- zone of inhibition at 4 µg/disc [9]: 16 mm
- MIC [10]: 6.3 to 12.5 µg/mL
- MIC [11]: 50 to 100 µg/mL
- MIC [12]: > 200 µg/mL
- MIC [13]: 0.4 µg/mL
- MIC [14, 29]: 3.1 µg/mL
- MIC ([14]; Streptococcus pneumoniae, S. pneumoniae R6, Drug Susceptible, read-out: MIC R6): 6.3 µg/mL
- zone of inhibition at 4 µg/disc [15]: 16 mm
- MIC [16]: 12.5 µg/mL
- MIC [17]: 6.3 to 12.5 µg/mL
- MIC [18, 30]: > 200 µg/mL
- MIC [18, 31]: > 200 µg/mL
- MIC [19]: 1.6 µg/mL
- MIC ([20]; Staphylococcus aureus, ATCC29213, read-out: MIC S.a.): 6.3 to 12.5 µg/mL
- MIC [21]: 1.6 µg/mL
- MIC [22]: > 200 µg/mL
- zone of inhibition at 4 µg/disc [23]: 14 mm
- MIC [24]: 200 µg/mL
- MIC [25]: ≥ 200 µg/mL
- MIC [26]: 3.1 µg/mL
- MIC ([27]; H37RV, read-out: MIC H37Rv): 1.6 µg/mL
- MIC ([27]; read-out: MIC TN022): 3.1 µg/mL
- MIC ([27]; read-out: MIC TN026): 3.1 µg/mL

Structure (SMILES): CN[C@@H]1[C@H](O)[C@H](NC)[C@H]2O[C@]3(O)[C@H](O[C@@H]2[C@H]1O)O[C@H](C)C[C@@]3(O)CNCc1ccc(F)c(F)c1 [compound 12, 3′-(R)-3′-[(3,4-difluoro)benzylaminomethyl)]dihydrospectinomycin Trihydrochloride]
- MIC [2]: 200 µg/mL
- MIC [3]: 50 µg/mL
- MIC [5]: > 200 µg/mL
- MIC [6]: 12.5 to 25 µg/mL
- MIC [7]: 6.3 to 12.5 µg/mL
- MIC ([8]; Stenotrophomonas maltophilia, ATCC13637, read-out: MIC S.m.): 12.5 to 25 µg/mL
- zone of inhibition at 4 µg/disc [9]: 17 mm
- MIC [10]: 25 to 50 µg/mL
- MIC [11]: > 200 µg/mL
- MIC [12]: > 200 µg/mL
- MIC [13]: 6.3 to 12.5 µg/mL
- MIC [14, 29]: 6.3 µg/mL
- zone of inhibition at 4 µg/disc [15]: 15 to 17 mm
- MIC [16]: 50 µg/mL
- MIC [17]: 50 µg/mL
- MIC [18, 30]: ≥ 200 µg/mL
- MIC [18, 31]: ≥ 200 µg/mL
- MIC [19]: 25 to 50 µg/mL
- MIC ([20]; ATCC29213, Staphylococcus aureus (ATCC 29213), read-out: MIC S.a.): 100 to 200 µg/mL
- MIC [28]: 25 to 50 µg/mL
- MIC [21]: 3.1 to 6.3 µg/mL
- MIC [22]: ≥ 200 µg/mL
- zone of inhibition at 4 µg/disc [23]: 16 to 17 mm
- MIC [24]: 200 µg/mL
- MIC [25]: ≥ 200 µg/mL
- MIC [26]: 3.1 µg/mL
- MIC ([27]; H37RV, read-out: MIC H37Rv): 50 µg/mL
